Source: patent publication US6605628B1, “Method of using 5-(arysulfonyl)-, 5-(arylsulfanyl)-and 5-(arylsulfanyl)thiazolidine-2,4-diones for inhibition of farnesyl-protein transferase” (Wyeth Holdings Corporation, priority 2001, dated 2003)

Key:
FPTase [1] = biological target: T1, FPTase (Homo sapiens, UniProt P49354+P49356); assay: in vitro FTase Inhibition Assay, H-Ras used as substrate for farnesylation; type: biochemical; settings: Table I, read-out: IC50 H-Ras*
FPTase [2] = biological target: T1, FPTase; assay: in vitro FTase Inhibition Assay, K-Ras used as substrate for farnesylation; type: biochemical; settings: Table I

SMILES	IC50 (FPTase [1]) [nM]	IC50 (FPTase [2]) [nM]	melting point
COc1ccc(S(=O)(=O)C2(CCCC#Cc3cc(C)ccc3C)SC(=O)NC2=O)cc1 (stereo not drawn) [Example 135, 5-[5-(2,5-Dimethylphenyl)pent-4-ynyl]-5-(4-methoxybenzenesulfonyl)-thiazol idine-2 ,4-dione]	20 to 32	1900 to 2100	149 to 150 °C
COc1ccc(S(=O)(=O)C2(CCCC#Cc3ccc(C)cc3C)SC(=O)NC2=O)cc1 (stereo not drawn) [Example 136, 5-[5-(2,4-Dimethylphenyl)pent-4-ynyl]-5-(4-methoxybenzenesulfonyl)-thiazolidine-2,4-dione]	43 to 50	1000 to 1900	155 to 156 °C
Cc1ccc(C#CCCCC2(S(=O)(=O)c3ccc(I)cc3)SC(=O)NC2=O)c(C)c1 (stereo not drawn) [Example 137, 5-[5-(2,4-Dimethylphenyl)pent-4-ynyl]-5-(4-iodobenzenesulfonyl)-thiazolidine-2,4-dione]	21 to 400	37 to 800	153 to 154 °C
COc1ccc(S(=O)(=O)C2(CCCC#Cc3cc(Cl)ccc3C)SC(=O)NC2=O)cc1 (stereo not drawn) [Example 138, 5-[5-(5-Chloro-2-methylphenyl)pent-4-ynyl]-5-(4-methoxybenzene-sulfonyl)-thiazolidine-2,4-dione]	23 to 32	300 to 420	121 to 122 °C
Cc1ccc(Cl)cc1C#CCCCC1(S(=O)(=O)c2ccc(OC(F)(F)F)cc2)SC(=O)NC1=O (stereo not drawn) [Example 139, 5-[5-(5-Chloro-2-methylphenyl)pent-4-ynyl]-5-(4-trifluoromethoxybenzene-sulfonyl)-thiazolidine-2,4-dione]	140 to 170	600 to 5000	196 °C (dec.)
Cc1cc(Cl)ccc1C#CCCCC1(S(=O)(=O)c2ccc(I)cc2)SC(=O)NC1=O (stereo not drawn) [Example 141, 5-(5-(4-Chloro-2-methylphenyl)-pent-4-ynyl]-5-(4-iodobenzene-sulfonyl)-thiazolidine-2,4-dione]	21 to 32	300 to 340	93 to 99 °C
Cc1cc(Br)ccc1C#CCCCC1(S(=O)(=O)c2ccc(I)cc2)SC(=O)NC1=O (stereo not drawn) [Example 144, 5-[5-(4-Bromo-2-methylphenyl)pent-4-ynyl]-5-(4-iodobenzenesulfonyl)-thiazolidine-2,4-dione]	40 to 41	320 to 550	146 to 147 °C
Cc1ccc(NC(=O)OC(C)(C)C)cc1C#CCCCC1(S(=O)(=O)c2ccc(I)cc2)SC(=O)NC1=O (stereo not drawn) [Example 148, (3-{5-[5-(4-Iodobenzenesulfonyl)-2,4-dioxothiazolidin-5-yl]-pent-1-ynyl}-4-methylphenyl)carbamic Acid tert-Butyl Ester]	4.5 to 120	23 to 31	172 to 175 °C
COc1ccc(S(=O)(=O)C2(CCCC#Cc3cc(NC(=O)OC(C)(C)C)ccc3C)SC(=O)NC2=O)cc1 (stereo not drawn) [Example 150, (3-{5-[5-(4-Methoxybenzenesulfonyl)-2,4-dioxothiazolidin-5-yl]pent-1-ynyl}-4-methylphenyl)carbamic Acid tert-Butyl Ester]	7.4 to 32	16 to 68	116 to 118 °C
COc1ccc(S(=O)(=O)C2(CCCC#Cc3cc(C(=O)NC(C)(C)C)ccc3C)SC(=O)NC2=O)cc1 (stereo not drawn) [Example 152, N-tert-Butyl-3-{5-[5-(4-methoxybenzenesulfonyl)-2,4-dioxothiazol-idin-5-yl]pent-1-ynyl}-4-methyl-benzamide]	11 to 16	100 to 230	205 to 208 °C
COc1ccc(S(=O)(=O)C2(CCCC#Cc3ccc(C(F)(F)F)cc3)SC(=O)NC2=O)cc1 (stereo not drawn) [Example 153, 5-(4-Methoxybenzenesulfonyl)-5-[5-(4-trifluoromethylphenyl)pent-4-ynyl]thiazolidine-2,4-dione]	170 to 200	1000 to 6100	160 to 163 °C
COc1ccc(S(=O)(=O)C2(CCCC#Cc3ccc(OC(F)(F)F)cc3)SC(=O)NC2=O)cc1 (stereo not drawn) [Example 154, 5-(4-Methoxybenzenesulfonyl)-5-[5-(4-trifluoromethoxyphenyl)pent-4-ynyl]thiazolidine-2,4-dione]	70 to 150	1000 to 2500	120 to 123 °C
COC(=O)c1ccc(C)c(C#CCCCC2(S(=O)(=O)c3ccc(OC)cc3)SC(=O)NC2=O)c1 (stereo not drawn) [Example 155, 3-{5-[5-(4-Methoxybenzenesulfonyl)-2,4-dioxo-thiazolidin-5-yl]-pent-1-ynyl}-4-methylbenzoic Acid Methyl Ester]	10 to 320	420 to 440	119 to 121 °C
Cc1ccc(S(=O)(=O)C2(CCCC#Cc3ccc(C(C)(C)C)cc3)SC(=O)NC2=O)cc1 (stereo not drawn) [Example 157, 5-[5-(4-tert-Butylphenyl)pent-4-ynyl]-5-(toluene-4-sulfonyl)thiazolidine-2,4-dione]	270	5000	134 to 138 °C
COc1ccc(S(=O)(=O)C2(CCCC#Cc3ccc(C#N)cc3)SC(=O)NC2=O)cc1 (stereo not drawn) [Example 158, 4-(5-[5-(4-Methoxybenzenesulfonyl)-2,4-dioxo-thiazolidin-5-yl]pent-1-ynyl}benzonitrile]	150	3800	174 to 178 °C
Cc1ccc(S(=O)(=O)C2(CCCC#Cc3ccc(S(C)(=O)=O)cc3)SC(=O)NC2=O)cc1 (stereo not drawn) [Example 159, 5-[5-(4-Methanesulfonylphenyl)-pent-4-ynyl]-5-(toluene-4-sulfonyl)-thiazolidine-2,4-dione]	650	> 10000	190 to 193 °C
O=C1NC(=O)C(CCCC#Cc2ccc(-n3cccc3)cc2)(S(=O)(=O)c2ccc(I)cc2)S1 (stereo not drawn) [Example 162, 5-(4-Iodo-benzenesulfonyl)-5-[5-(4-pyrrol-1-yl-phenyl)pent-4-ynyl]-thiazolidine-2,4-dione]	1210	4000	194 to 195 °C
COc1cccc(S(=O)(=O)C2(CCCC#Cc3cccs3)SC(=O)NC2=O)c1 (stereo not drawn) [Example 164, 5-(3-Methoxybenzenesulfonyl)-5-(5-thiophen-2-yl-pent-4-ynyl)-thiazolidine-2,4-dione]	150	> 10000	133 to 135 °C
COc1ccc(S(=O)(=O)C2(CCCC#Cc3cccs3)SC(=O)NC2=O)cc1 (stereo not drawn) [Example 166, 5-(4-Methoxybenzenesulfonyl)-5-(5-thiophen-2-yl-pent-4-ynyl)-thiazolidine-2,4-dione]	150	5300	60 to 66 °C
Cc1ccc(S(=O)(=O)C2(CC#Cc3ccc(-c4ccccc4)cc3)SC(=O)NC2=O)cc1 (stereo not drawn) [Example 169, 5-(3-Biphenyl-4-yl-prop-2-ynyl)-5-(toluene-4-sulfonyl)-thiazolidine-2,4-dione]	100	1800	179 to 180 °C
Cc1ccc(S(=O)(=O)C2(CC#Cc3ccc(Oc4ccccc4)cc3)SC(=O)NC2=O)cc1 (stereo not drawn) [Example 170, 5-[3-(4-Phenoxyphenyl)prop-2-ynyl]-5-(toluene-4-sulfonyl)-thiazolidine-2,4-dione]	380	4700	64 to 66 °C
